Data reported in US20260201008A1, “SECRETIN-DERIVED GLP1R SELECTIVE AGONISTS” (GUBRA A/S, priority 2023, published 2026).
Where two headings read alike, the source gives them in different places. Numbered stars: 1 amine (or outer) side, 2 acyl side, 3 side chain; on linkers, the order of the positions; unused ones are H or OH. Square brackets hold non-standard residues; d marks the D form. Side chains are listed from the residue outwards. Peptide text beside a SMILES is read from it. * marks the point of attachment. C20 diacid = O=C(O)CCCCCCCCCCCCCCCCCCC(=O)*; γGlu = O=C(O)[C@H](CCC(=O)[*:2])N[*:1]; AEEA = NCCOCCOCC(=O)O; Aib = CC(C)(N)C(=O)O

Legend:
[1] = Fibril formation of crude library peptides (Thioflavin T); format: physicochemical; parameters: key: average ThT fluorescence emission at 480 nm (ex 450 nm), raw units; settings: Physical stability of peptides
In short: (§1)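 Crude peptides at 267 μM in 50 mM sodium acetate pH 4.0 or 50 mM sodium phosphate pH 7.0, pre-incubated 1-2 h at room temperature, then 4 μM final ThT added. Turbidity read first as A600. ThT fluorescence (ex 450/em 480 nm) read every 10 min for 72 h at 40° C, with 5 min shaking before each read; fibril formation = average emission.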

GLP1R = GLP1R (Homo sapiens, UniProt P43220); test: hGLP1R potency, cAMP accumulation in CHO-K1 cells stably overexpressing hGLP1R; format: cell-based; parameters: host or cells: CHO-K1; settings: for EC50: cAMP accumulation, CHO-K1 cells overexpressing hGLP1R; for Selectivity: SCTR EC50/GLP1R EC50 ratio
Chain of GLP1R (P43220 24-463): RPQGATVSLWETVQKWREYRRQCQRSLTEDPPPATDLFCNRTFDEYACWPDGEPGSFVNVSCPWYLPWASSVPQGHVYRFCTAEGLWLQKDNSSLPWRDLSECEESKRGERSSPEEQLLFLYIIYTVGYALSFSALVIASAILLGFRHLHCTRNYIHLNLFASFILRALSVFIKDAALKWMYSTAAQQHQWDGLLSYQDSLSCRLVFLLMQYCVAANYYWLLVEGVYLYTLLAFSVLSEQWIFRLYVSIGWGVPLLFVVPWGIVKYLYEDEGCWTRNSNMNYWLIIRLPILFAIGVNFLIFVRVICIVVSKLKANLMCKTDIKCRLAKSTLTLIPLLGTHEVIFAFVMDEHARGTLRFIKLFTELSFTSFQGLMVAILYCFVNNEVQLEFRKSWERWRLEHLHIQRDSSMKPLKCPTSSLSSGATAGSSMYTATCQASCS
In short: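 Thawed cells go straight into buffer containing 0.5 mM IBMX and 0.05% casein, get graded compound doses for 30 min at room temperature, and are then assayed for accumulated cAMP by time-resolved FRET. Human GLP-1(7-36) serves as positive control; EC50 is derived by nonlinear regression.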

[2] = Turbidity of crude library peptides (absorbance at 600 nm); format: physicochemical; settings: Physical stability of peptides
In short: as §1

SCTR = SCTR (Homo sapiens, UniProt P47872); test: hSCTR potency, cAMP accumulation in CHO-K1 cells stably overexpressing hSCTR; format: cell-based; parameters: alternatively Euroscreen ES-712-AF; FAST-0161L; host or cells: CHO-K1; settings: cAMP accumulation, CHO-K1 cells overexpressing hSCTR
Chain of SCTR (P47872 23-440): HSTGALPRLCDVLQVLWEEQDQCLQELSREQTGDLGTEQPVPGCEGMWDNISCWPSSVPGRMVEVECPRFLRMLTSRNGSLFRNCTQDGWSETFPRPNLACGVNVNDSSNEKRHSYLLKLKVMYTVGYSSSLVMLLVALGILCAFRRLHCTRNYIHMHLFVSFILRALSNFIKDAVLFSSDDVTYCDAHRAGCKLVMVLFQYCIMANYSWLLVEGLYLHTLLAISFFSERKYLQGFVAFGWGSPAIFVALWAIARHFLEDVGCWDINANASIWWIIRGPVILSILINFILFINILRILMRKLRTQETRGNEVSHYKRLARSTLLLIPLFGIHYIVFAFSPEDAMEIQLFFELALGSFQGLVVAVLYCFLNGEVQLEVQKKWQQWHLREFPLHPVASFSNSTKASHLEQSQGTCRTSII
In short: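 Read-out is TR-FRET cAMP detection, recorded one hour after reagent addition, in CHO-K1 cells stably overexpressing hSCTR. Cells in DPBS containing 0.05% casein and 0.5 mM IBMX are exposed to graded peptide doses for 30 min at room temperature, with human secretin as reference agonist.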

[3] = read-out: pEC50 hGLPR1 (converted)
[4] = read-out: pEC50 hSCTR (converted)

Compound	Fibril formation [1]	EC50 (GLP1R; read-out: hGLP1R pEC50 (converted)) [nM]	SCTR EC50/GLP1R EC50 ratio (GLP1R; selectivity for hGLP1R over hSCTR, cAMP accumulation in CHO-K1 cells)	Turbidity (pH 7) [2]	EC50 (SCTR; read-out: hSCTR pEC50 (converted)) [nM]	Selectivity (GLP1R)	EC50 (GLP1R; [3]) [nM]	EC50 (SCTR; [4]) [nM]
CC(C)C[C@H](NC(=O)[C@H](Cc1ccccc1)NC(=O)[C@H](CCCNC(=N)N)NC(=O)[C@H](CCC(N)=O)NC(=O)[C@H](CC(C)C)NC(=O)C(C)(C)NC(=O)[C@H](C)NC(=O)[C@H](CCC(=O)O)NC(=O)[C@H](CCC(=O)O)NC(=O)[C@H](CCCCNC(=O)COCCOCCNC(=O)COCCOCCNC(=O)CC[C@H](NC(=O)CCCCCCCCCCCCCCCCCCC(=O)O)C(=O)O)NC(=O)[C@H](CC(C)C)NC(=O)[C@H](CC(=O)O)NC(=O)[C@H](CO)NC(=O)[C@@H](NC(=O)[C@H](CC(=O)O)NC(=O)[C@H](CO)NC(=O)[C@@H](NC(=O)[C@H](Cc1ccccc1)NC(=O)[C@@H](NC(=O)CNC(=O)[C@H](CCC(=O)O)NC(=O)C(C)(C)NC(=O)[C@@H](N)Cc1c[nH]cn1)[C@@H](C)O)[C@@H](C)O)C(C)C)C(=O)N[C@@H](CCC(=O)O)C(=O)N[C@@H](Cc1c[nH]cn1)C(=O)N[C@@H](CC(C)C)C(=O)N[C@H](C(N)=O)C(C)C [compound 153] (H-H[Aib]EGTFTSDVSDLK([AEEA-AEEA-γGlu-C20 diacid])EEA[Aib]LQRFLEHLV-NH2)	3897	0.02	16095	0.08	316			
CC(C)C[C@H](NC(=O)[C@H](Cc1ccccc1)NC(=O)[C@H](CCCNC(=N)N)NC(=O)[C@H](CCC(N)=O)NC(=O)[C@H](CCC(=O)O)NC(=O)[C@H](C)NC(=O)[C@H](C)NC(=O)[C@@H](NC(=O)[C@H](CCC(=O)O)NC(=O)[C@H](CCCCNC(=O)COCCOCCNC(=O)COCCOCCNC(=O)CC[C@H](NC(=O)CCCCCCCCCCCCCCCCCCC(=O)O)C(=O)O)NC(=O)[C@H](CC(C)C)NC(=O)[C@H](Cc1ccc(O)cc1)NC(=O)[C@H](CO)NC(=O)[C@@H](NC(=O)[C@H](CC(=O)O)NC(=O)[C@H](CO)NC(=O)[C@@H](NC(=O)[C@H](Cc1ccccc1)NC(=O)[C@@H](NC(=O)CNC(=O)[C@H](CCC(=O)O)NC(=O)C(C)(C)NC(=O)[C@@H](N)Cc1c[nH]cn1)[C@@H](C)O)[C@@H](C)O)C(C)C)[C@@H](C)O)C(=O)N[C@@H](CCC(=O)O)C(=O)N[C@@H](Cc1c[nH]cn1)C(=O)N[C@@H](CC(C)C)C(=O)N[C@H](C(N)=O)C(C)C [compound 69] (H-H[Aib]EGTFTSDVSYLK([AEEA-AEEA-γGlu-C20 diacid])ETAAEQRFLEHLV-NH2)	14799			0.08		1030149	0.0158	15800
CC(C)C[C@H](NC(=O)[C@H](Cc1ccccc1)NC(=O)[C@H](CCCNC(=N)N)NC(=O)[C@H](CCC(N)=O)NC(=O)[C@@H](NC(=O)[C@H](C)NC(=O)[C@H](C)NC(=O)[C@H](CCC(=O)O)NC(=O)[C@H](CCC(=O)O)NC(=O)[C@H](CCCCNC(=O)COCCOCCNC(=O)COCCOCCNC(=O)CC[C@H](NC(=O)CCCCCCCCCCCCCCCCCCC(=O)O)C(=O)O)NC(=O)[C@H](CC(C)C)NC(=O)[C@H](CCCNC(=N)N)NC(=O)[C@H](CO)NC(=O)[C@@H](NC(=O)[C@H](CC(=O)O)NC(=O)[C@H](CO)NC(=O)[C@@H](NC(=O)[C@H](Cc1ccccc1)NC(=O)[C@@H](NC(=O)CNC(=O)[C@H](CCC(=O)O)NC(=O)C(C)(C)NC(=O)[C@@H](N)Cc1c[nH]cn1)[C@@H](C)O)[C@@H](C)O)C(C)C)[C@@H](C)O)C(=O)N[C@@H](CCC(=O)O)C(=O)N[C@@H](Cc1c[nH]cn1)C(=O)N[C@@H](CC(C)C)C(=O)N[C@H](C(N)=O)C(C)C [compound 65] (H-H[Aib]EGTFTSDVSRLK([AEEA-AEEA-γGlu-C20 diacid])EEAATQRFLEHLV-NH2)	9674			0.09		6482	0.00316	25.1
CC(C)C[C@H](NC(=O)[C@H](Cc1ccccc1)NC(=O)[C@H](CCCNC(=N)N)NC(=O)[C@H](CCC(N)=O)NC(=O)[C@H](C)NC(=O)[C@H](C)NC(=O)[C@H](C)NC(=O)C(C)(C)NC(=O)[C@H](CCC(=O)O)NC(=O)[C@H](CCCCNC(=O)COCCOCCNC(=O)COCCOCCNC(=O)CC[C@H](NC(=O)CCCCCCCCCCCCCCCCCCC(=O)O)C(=O)O)NC(=O)[C@H](CC(C)C)NC(=O)[C@@H](NC(=O)[C@H](CO)NC(=O)[C@@H](NC(=O)[C@H](CC(=O)O)NC(=O)[C@H](CO)NC(=O)[C@@H](NC(=O)[C@H](Cc1ccccc1)NC(=O)[C@@H](NC(=O)CNC(=O)[C@H](CCC(=O)O)NC(=O)C(C)(C)NC(=O)[C@@H](N)Cc1c[nH]cn1)[C@@H](C)O)[C@@H](C)O)C(C)C)C(C)C)C(=O)N[C@@H](CCC(=O)O)C(=O)N[C@@H](Cc1c[nH]cn1)C(=O)N[C@@H](CC(C)C)C(=O)N[C@H](C(N)=O)C(C)C [compound 15] (H-H[Aib]EGTFTSDVSVLK([AEEA-AEEA-γGlu-C20 diacid])E[Aib]AAAQRFLEHLV-NH2)	12385			0.09		3961	0.0794	316
CC(C)C[C@H](NC(=O)[C@H](Cc1ccccc1)NC(=O)[C@H](CCCNC(=N)N)NC(=O)[C@H](CCC(N)=O)NC(=O)[C@H](CCC(=O)O)NC(=O)[C@H](C)NC(=O)[C@H](C)NC(=O)[C@@H](NC(=O)[C@H](CCC(=O)O)NC(=O)[C@H](CCCCNC(=O)COCCOCCNC(=O)COCCOCCNC(=O)CC[C@H](NC(=O)CCCCCCCCCCCCCCCCCCC(=O)O)C(=O)O)NC(=O)[C@H](CC(C)C)NC(=O)[C@H](CCCNC(=N)N)NC(=O)[C@H](CO)NC(=O)[C@@H](NC(=O)[C@H](CC(=O)O)NC(=O)[C@H](CO)NC(=O)[C@@H](NC(=O)[C@H](Cc1ccccc1)NC(=O)[C@@H](NC(=O)CNC(=O)[C@H](CCC(=O)O)NC(=O)C(C)(C)NC(=O)[C@@H](N)Cc1c[nH]cn1)[C@@H](C)O)[C@@H](C)O)C(C)C)[C@@H](C)O)C(=O)N[C@@H](CCC(=O)O)C(=O)N[C@@H](Cc1c[nH]cn1)C(=O)N[C@@H](CC(C)C)C(=O)N[C@H](C(N)=O)C(C)C [compound 34] (H-H[Aib]EGTFTSDVSRLK([AEEA-AEEA-γGlu-C20 diacid])ETAAEQRFLEHLV-NH2)	11365			0.08		18582	0.0251	398
CC(C)C[C@H](NC(=O)[C@H](Cc1ccccc1)NC(=O)[C@H](CCCNC(=N)N)NC(=O)[C@H](CCC(N)=O)NC(=O)[C@@H](NC(=O)[C@H](C)NC(=O)[C@H](C)NC(=O)[C@@H](NC(=O)[C@H](CCC(=O)O)NC(=O)[C@H](CCCCNC(=O)COCCOCCNC(=O)COCCOCCNC(=O)CC[C@H](NC(=O)CCCCCCCCCCCCCCCCCCC(=O)O)C(=O)O)NC(=O)[C@H](CC(C)C)NC(=O)[C@H](Cc1ccccc1)NC(=O)[C@H](CO)NC(=O)[C@@H](NC(=O)[C@H](CC(=O)O)NC(=O)[C@H](CO)NC(=O)[C@@H](NC(=O)[C@H](Cc1ccccc1)NC(=O)[C@@H](NC(=O)CNC(=O)[C@H](CCC(=O)O)NC(=O)C(C)(C)NC(=O)[C@@H](N)Cc1c[nH]cn1)[C@@H](C)O)[C@@H](C)O)C(C)C)[C@@H](C)O)[C@@H](C)O)C(=O)N[C@@H](CCC(=O)O)C(=O)N[C@@H](Cc1c[nH]cn1)C(=O)N[C@@H](CC(C)C)C(=O)N[C@H](C(N)=O)C(C)C [compound 70] (H-H[Aib]EGTFTSDVSFLK([AEEA-AEEA-γGlu-C20 diacid])ETAATQRFLEHLV-NH2)	99118			0.11		4095	0.02	100
CC(C)C[C@H](NC(=O)[C@H](Cc1ccccc1)NC(=O)[C@H](CCCNC(=N)N)NC(=O)[C@H](CCC(N)=O)NC(=O)[C@H](C)NC(=O)[C@H](C)NC(=O)[C@H](C)NC(=O)[C@H](CCC(=O)O)NC(=O)[C@H](CCC(=O)O)NC(=O)[C@H](CCCCNC(=O)COCCOCCNC(=O)COCCOCCNC(=O)CC[C@H](NC(=O)CCCCCCCCCCCCCCCCCCC(=O)O)C(=O)O)NC(=O)[C@H](CC(C)C)NC(=O)[C@H](Cc1ccc(O)cc1)NC(=O)[C@H](CO)NC(=O)[C@@H](NC(=O)[C@H](CC(=O)O)NC(=O)[C@H](CO)NC(=O)[C@@H](NC(=O)[C@H](Cc1ccccc1)NC(=O)[C@@H](NC(=O)CNC(=O)[C@H](CCC(=O)O)NC(=O)C(C)(C)NC(=O)[C@@H](N)Cc1c[nH]cn1)[C@@H](C)O)[C@@H](C)O)C(C)C)C(=O)N[C@@H](CCC(=O)O)C(=O)N[C@@H](Cc1c[nH]cn1)C(=O)N[C@@H](CC(C)C)C(=O)N[C@H](C(N)=O)C(C)C [compound 61] (H-H[Aib]EGTFTSDVSYLK([AEEA-AEEA-γGlu-C20 diacid])EEAAAQRFLEHLV-NH2)	9138			0.09		66252	0.0126	794
